# Measurements taken from patent publication US8232401B2 (Japan Tobacco Inc., priority 2002, dated 2012).
# Target: T1, HIV integrase (Human immunodeficiency virus type 1 group M subtype B, UniProt P12497, F1332H)
# T1 construct: HIV integrase full length gene; made in house; host or cells: Escherichia coli BL21(DE3)
# Test: Determination of enzyme (HIV integrase) inhibitory activity (strand transfer, microtiter plate, absorbance at 450 nm)
# Format: biochemical, HIV (Human Immunodeficiency Virus (type 1))
# Conditions: recombinant HIV integrase (F185H) expressed in E. coli; donor DNA on streptavidin plate, digoxigenin target DNA; 37° C.
# Procedure: The following explains evaluation methods of the HIV integrase inhibitory activity of the compound of the present invention.
# (i) Construction of Recombinant Integrase Gene Expression System
# (ii) Production and Purification of Integrase Protein
# Escherichia coli recombinant BL21(DE3) transformed with plasmid pET21a-IN-F185H obtained in (i) was shake cultured at 30° C. in a liquid medium containing ampicillin. When the culture reached the logarithmic growth phase, isopropyl-β-D-thiogalactopyranoside was added to promote expression of integrase gene. The culture was continued for 3 hrs to promote accumulation of the integrase protein. The recombinant E. coli was collected in pellets by centrifugal separation and preserved at −80° C.
# The E. coli was suspended in Lysis buffer (20 mM HEPES (pH 7.5), 5 mM DTT, 10 mM CHAPS, 10% glycerol) containing 1M sodium chloride and subjected to repeat pressurization and depressurization for rupture, and centrifugal separation at 4° C., 40,000×g, 60 min to recover a water-soluble fraction (supernatant). This was diluted 10-fold with Lysis buffer free of sodium chloride, mixed with SP-Sepharose (Pharmacia Corporation) and stirred at 4° C. for 60 min to allow adsorption of integrase protein to the resin. The resin was washed with Lysis buffer containing 100 mM sodium chloride and the integrase protein was eluted with Lysis buffer containing 1M sodium chloride.
# The eluted integrase protein solution was applied to a Superdex 75 (Pharmacia Corporation) column for gel filtration. The protein was eluted with Lysis buffer containing 1M sodium chloride.
# The obtained fractions of the integrate protein were collected and preserved at −80° C.
# (iii) Preparation of DNA Solution
# The following DNA synthesized by Greiner was dissolved in TE buffer (10 mM Tris-hydrochloric acid (pH 8.0), 1 mM EDTA) and mixed with donor DNA, target DNA, each complementary strand (+ and − strands) to 1 μM. The mixture was heated at 95° C. for 5 min, 80° C. for 10 min, 70° C. for 10 min, 60° C. for 10 min, 50° C. for 10 min and 40° C. for 10 min and preserved at 25° C. to give a double stranded DNA, which was used for the test. Donor DNA (− strand having biotin attached to the 5′ terminal)
# (iv) Determination of Enzyme (HIV Integrase) Inhibitory activity
# The donor DNA was diluted with TE buffer to 10 nM, of which 50 μl was added to each well of streptavidin-coated microtiter plate (Roche) and allowed to adsorb at 37° C. for 60 min. The DNA was washed with phosphate buffer (Dulbecco PBS, Sanko Junyaku Co., Ltd.) containing 0.1% Tween 20 and phosphate buffer. Then, a reaction mixture (70 μl) having the following composition, a test substance (10 μl) diluted with the reaction mixture and […] integrase protein (10 μl) were added to each well and reacted at 37° C. for 60 min.
# Then, 50 nM target DNA (1.0 μl) was added, reacted at 37° C. for 10 min and washed with phosphate buffer containing 0.1% Tween 20 to stop the reaction.
# Then, 100 mU/ml peroxidase labeled anti-digoxigenin antibody solution (Roche, 100 μl) was added, and the mixture was reacted at 37° C. for 60 min, followed by washing with phosphate buffer containing 0.1% Tween 20.
# A peroxidase color solution (Bio Rad, 100 μl) was added and allowed to react at room temperature for 4 min. The color reaction was stopped by adding 1N sulfuric acid (100 μl). The absorbance at 450 nm was measured.
# The HIV integrase inhibitory activity (IC50) of the compound of the present invention was calculated from the inhibition rate according to the following formula. […] Evaluation of Antiviral Activity
row,Structure (SMILES),IC50 [nM]
1,"CNS(=O)(=O)Cn1cc(C(=O)O)c(=O)c2cc(Cc3c(F)cccc3Cl)ccc21 [Example 1-76, 6-(2-Chloro-6-fluorobenzyl)-1-methylsulfamoylmethyl-4-oxo-1,4-dihydroquinoline-3-carboxylic acid]",28
2,"CN(C)S(=O)(=O)Cn1cc(C(=O)O)c(=O)c2cc(Cc3c(F)cccc3Cl)ccc21 [Example 1-77, 6-(2-Chloro-6-fluorobenzyl)-1-dimethylsulfamoylmethyl-4-oxo-1,4-dihydroquinoline-3-carboxylic acid]",63
3,O=C(O)c1cn(CCO)c2ccc(Cc3ccccc3)cc2c1=O [Example 1-78],590
4,"Cc1cccc(Cc2ccc3c(c2)c(=O)c(C(=O)O)cn3CCO)c1Cl [Example 1-79, 6-(2-Chloro-3-methylbenzyl)-1-(2-hydroxyethyl)-4-oxo-1,4-dihydroquinoline-3-carboxylic acid]",77
5,"O=C(O)c1cn(CCO)c2ccc(Cc3ccccc3Br)cc2c1=O [Example 1-80, 6-(2-Bromobenzyl)-1-(2-hydroxyethyl)-4-oxo-1,4-dihydroquinoline-3-carboxylic acid]",350
6,"O=C(O)c1cn(CCO)c2ccc(Cc3ccccc3-c3ccccc3)cc2c1=O [Example 1-86, 6-Biphenyl-2-ylmethyl-1-(2-hydroxyethyl)-4-oxo-1,4-dihydroquinoline-3-carboxylic acid]",150
7,"O=C(O)c1cn(CCO)c2ccc(Cc3ccccc3Cl)cc2c1=O [Example 1-87, 6-(2-Chlorobenzyl)-1-(2-hydroxyethyl)-4-oxo-1,4-dihydroquinoline-3-carboxylic acid]",140
8,O=C(O)c1cn(CCO)c2ccc(Cc3cccc(-c4ccccc4)c3)cc2c1=O [Example 1-88],450
9,"CSc1ccc(Cl)c(Cc2ccc3c(c2)c(=O)c(C(=O)O)cn3CCO)c1 [Example 1-92, 6-(2-Chloro-5-methylsulfanylbenzyl)-1-(2-hydroxyethyl)-4-oxo-1,4-dihydroquinoline-3-carboxylic acid]",280
10,"O=C(O)c1cn(CCO)c2ccc(Cc3ccccc3OC(F)(F)F)cc2c1=O [Example 1-93, 1-(2-Hydroxyethyl)-4-oxo-6-(2-trifluoromethyloxybenzyl)-1,4-dihydroquinoline-3-carboxylic acid]",370
11,O=C(O)c1cn(CCO)c2ccc(Cc3cccc(Br)c3)cc2c1=O [Example 1-96],230
12,"Cc1ccc(Cl)c(Cc2ccc3c(c2)c(=O)c(C(=O)O)cn3CCO)c1 [Example 1-97, 6-(2-Chloro-5-methylbenzyl)-1-(2-hydroxyethyl)-4-oxo-1,4-dihydroquinoline-3-carboxylic acid]",130
13,"Nn1cc(C(=O)O)c(=O)c2cc(Cc3cccc(Cl)c3Cl)ccc21 [Example 2-1, 1-Amino-6-(2,3-dichlorobenzyl)-4-oxo-1,4-dihydroquinoline-3-carboxylic acid]",170
14,"COC(=O)Nn1cc(C(=O)O)c(=O)c2cc(Cc3cccc(Cl)c3Cl)ccc21 [Example 2-2, 6-(2,3-Dichlorobenzyl)-1-methoxycarbonylamino-4-oxo-1,4-dihydroquinoline-3-carboxylic acid]",180
15,"CC(=O)Nn1cc(C(=O)O)c(=O)c2cc(Cc3cccc(Cl)c3Cl)ccc21 [Example 2-3, 1-Acetylamino-6-(2,3-dichlorobenzyl)-4-oxo-1,4-dihydroquinoline-3-carboxylic acid]",110
16,"CS(=O)(=O)Nn1cc(C(=O)O)c(=O)c2cc(Cc3cccc(Cl)c3Cl)ccc21 [Example 2-4, 6-(2,3-Dichlorobenzyl)-1-methanesulfonylamino-4-oxo-1,4-dihydroquinoline-3-carboxylic acid]",18

row,Structure (SMILES),IC50 [nM]
1,"CN(n1cc(C(=O)O)c(=O)c2cc(Cc3cccc(Cl)c3Cl)ccc21)S(C)(=O)=O [Example 2-5, 6-(2,3-Dichlorobenzyl)-1-(N-methanesulfonyl-N-methylamino)-4-oxo-1,4-dihydroquinoline-3-carboxylic acid]",300
2,"CN(C)n1cc(C(=O)O)c(=O)c2cc(Cc3cccc(Cl)c3Cl)ccc21 [Example 2-6, 6-(2,3-Dichlorobenzyl)-1-dimethylamino-4-oxo-1,4-dihydroquinoline-3-carboxylic acid]",92
3,"CNn1cc(C(=O)O)c(=O)c2cc(Cc3cccc(Cl)c3Cl)ccc21 [Example 2-7, 6-(2,3-Dichlorobenzyl)-1-methylamino-4-oxo-1,4-dihydroquinoline-3-carboxylic acid]",79
4,"CCNn1cc(C(=O)O)c(=O)c2cc(Cc3cccc(Cl)c3Cl)ccc21 [Example 2-8, 6-(2,3-Dichlorobenzyl)-1-ethylamino-4-oxo-1,4-dihydroquinoline-3-carboxylic acid]",85
5,"COc1c(Cc2cccc(Cl)c2Cl)ccc2c1c(=O)c(C(=O)O)cn2CCO [Example 3-1, 6-(2,3-Dichlorobenzyl)-1-(2-hydroxyethyl)-5-methoxy-4-oxo-1,4-dihydroquinoline-3-carboxylic acid]",470
6,"Cc1c(Cl)cccc1Cc1ccc2c(c1)c(=O)c(C(=O)O)cn2CCO [Example 3-2, 6-(3-Chloro-2-methylbenzyl)-1-(2-hydroxyethyl)-4-oxo-1,4-dihydroquinoline-3-carboxylic acid]",200
7,"COc1c(Cl)cccc1Cc1ccc2c(c1)c(=O)c(C(=O)O)cn2CCO [Example 3-3, 6-(3-Chloro-2-methoxybenzyl)-1-(2-hydroxyethyl)-4-oxo-1,4-dihydroquinoline-3-carboxylic acid]",190
8,"COc1cc2c(cc1Cc1cccc(Cl)c1F)c(=O)c(C(=O)O)cn2CCO [Example 3-4, 6-(3-Chloro-2-fluorobenzyl)-1-(2-hydroxyethyl)-7-methoxy-4-oxo-1,4-dihydroquinoline-3-carboxylic acid]",11
9,"O=C(O)c1cn(CCO)c2ccc(Cc3cccc(Cl)c3Cl)c(O)c2c1=O [Example 3-5, 6-(2,3-Dichlorobenzyl)-5-hydroxy-1-(2-hydroxyethyl)-4-oxo-1,4-dihydroquinoline-3-carboxylic acid]",24
10,"O=C(O)c1cn(CCO)c2cc(O)c(Cc3cccc(Cl)c3Cl)cc2c1=O [Example 3-6, 6-(2,3-Dichlorobenzyl)-7-hydroxy-1-(2-hydroxyethyl)-4-oxo-1,4-dihydroquinoline-3-carboxylic acid]",11
11,"CN(C)c1ccccc1Cc1ccc2c(c1)c(=O)c(C(=O)O)cn2CCO [Example 3-8, 6-(2-Dimethylaminobenzyl)-1-(2-hydroxyethyl)-4-oxo-1,4-dihydroquinoline-3-carboxylic acid]",340
12,"O=C(O)c1cn(-c2ccccc2)c2ccc(Cc3cccc(Cl)c3Cl)cc2c1=O [Example 3-9, 6-(2,3-Dichlorobenzyl)-4-oxo-1-phenyl-1,4-dihydroquinoline-3-carboxylic acid]",84
13,"O=C(O)c1cn(C(CO)CO)c2ccc(Cc3cccc(Cl)c3Cl)cc2c1=O [Example 3-10, 6-(2,3-Dichlorobenzyl)-1-[2-hydroxy-1-(hydroxymethyl)ethyl]-4-oxo-1,4-dihydroquinoline-3-carboxylic acid]",18
14,"O=C(O)c1cn(C2CCC2)c2ccc(Cc3cccc(Cl)c3Cl)cc2c1=O [Example 3-12, 1-Cyclobutyl-6-(2,3-dichlorobenzyl)-4-oxo-1,4-dihydroquinoline-3-carboxylic acid]",16
15,"O=C(O)c1cn(C2CCCC2)c2ccc(Cc3cccc(Cl)c3Cl)cc2c1=O [Example 3-13, 1-Cyclopentyl-6-(2,3-dichlorobenzyl)-4-oxo-1,4-dihydroquinoline-3-carboxylic acid]",29
